Data as given in ChEMBL document CHEMBL1201862, “PubChem BioAssay data set” (2004).
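Test compounds were applied to cells in 96-well plates for 48 hours at 5 doses. At the GI50, growth is halved.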 Activity calls are given as the source filed them. No stated cut-off is given here; in the data, active = GI50 up to about 1.1 µM and inactive = higher.

What was measured:
Test in all cases: NCI tumour cell line growth inhibition, 48 h
[1] = tested on: 786-0
[2] = tested on: A498
[3] = tested on: A549
[4] = tested on: CCRF-CEM
[5] = tested on: EKVX
[6] = tested on: HCT-15
[7] = tested on: HL-60
[8] = tested on: HOP-92
[9] = tested on: M14
[10] = tested on: MDA-MB-231
[11] = tested on: NCI-H226
[12] = tested on: OVCAR-8
[13] = tested on: PC-3
[14] = tested on: SF-268
[15] = tested on: SF-295
[16] = tested on: SF-539
[17] = tested on: SK-MEL-28
[18] = tested on: SK-OV-3
[19] = tested on: SW-620
[20] = tested on: UACC-257

SMILES	GI50 [1]	GI50 [2]	GI50 [3]	GI50 [4]	GI50 [5]	GI50 [6]	GI50 [7]	GI50 [8]	GI50 [9]	GI50 [10]	GI50 [11]	GI50 [12]	GI50 [13]	GI50 [14]	GI50 [15]	GI50 [16]	GI50 [17]	GI50 [18]	GI50 [19]	GI50 [20]
CSc1ncc2c(C#N)c3ccccn3c(=O)c2n1	> 100000 nM (inactive)	> 100000 nM (inactive)	> 100000 nM (inactive)	> 100000 nM (inactive)	> 100000 nM (inactive)	> 100000 nM	> 100000 nM (inactive)	> 100000 nM (inactive)	> 100000 nM (inactive)	> 100000 nM (inactive)	> 100000 nM (inactive)	> 100000 nM (inactive)	> 100000 nM (inactive)	> 100000 nM (inactive)	> 100000 nM (inactive)	> 100000 nM (inactive)	> 100000 nM (inactive)	> 100000 nM (inactive)	52600 nM (inactive)	> 100000 nM (inactive)
COc1cccc2c1C(=O)c1c(O)c3c(c(O)c1C2=O)C[C@@](O)(C(=O)CO)C[C@@H]3OC1CC(N2CCOCC2C#N)C(O)C(C)O1 (stereo not given in full)	1 nM (active)	0.0258 nM (active)	0.0426 nM (active)	0.0194 nM (active)	0.227 nM (active)	0.0451 nM	0.0202 nM (active)	0.0953 nM (active)	0.0542 nM (active)	0.11 nM (active)	0.0146 nM (active)	0.0518 nM (active)	0.107 nM (active)	0.0382 nM (active)	0.0182 nM (active)	0.0241 nM (active)	0.0973 nM (active)	0.124 nM (active)	0.0723 nM (active)	0.0597 nM (active)
C=C[C@H]1CN2CCc3c([nH]c4cc(O)ccc34)[C@@H]2C[C@@H]1C[C@H]1c2[nH]c3ccccc3c2CCN1C	1840 nM (inactive)	2160 nM (inactive)	5530 nM (inactive)	1690 nM (inactive)	7620 nM (inactive)	2540 nM	1040 nM (active)	3390 nM (inactive)	1740 nM (inactive)	6050 nM (inactive)	18700 nM (inactive)	6110 nM (inactive)	4890 nM (inactive)	6040 nM (inactive)	4530 nM (inactive)	1820 nM (inactive)	1780 nM (inactive)	13800 nM (inactive)	1920 nM (inactive)	1950 nM (inactive)
CCOC(=O)c1c2c(n(C)c1-c1ccccc1)C(=O)C(C)=CC2=O	15200 nM (inactive)	18200 nM (inactive)	12200 nM (inactive)	2510 nM (inactive)	5870 nM (inactive)	3360 nM	2940 nM (inactive)	2070 nM (inactive)	3660 nM (inactive)	2080 nM (inactive)	11000 nM (inactive)	5700 nM (inactive)	11400 nM (inactive)	8110 nM (inactive)	19000 nM (inactive)	4050 nM (inactive)	13900 nM (inactive)	16700 nM (inactive)	4060 nM (inactive)	2610 nM (inactive)
CCOC(=O)NN(C(=O)OCC)C(=C(c1ccccc1)N1CCOCC1)N(NC(=O)OCC)C(=O)OCC	> 100000 nM (inactive)	> 100000 nM (inactive)	> 100000 nM (inactive)	> 100000 nM (inactive)	> 100000 nM (inactive)	> 100000 nM	> 100000 nM (inactive)	> 100000 nM (inactive)	> 100000 nM (inactive)	> 100000 nM (inactive)	> 100000 nM (inactive)	> 100000 nM (inactive)	> 100000 nM (inactive)	> 100000 nM (inactive)	> 100000 nM (inactive)	> 100000 nM (inactive)	> 100000 nM (inactive)	> 100000 nM (inactive)	> 100000 nM (inactive)	> 100000 nM (inactive)
CCCCCCC(=O)OC[n+]1ccc2c(C)c3[nH]c4ccc(OC)cc4c3c(C)c2c1	70.8 nM (active)	863 nM (active)	238 nM (active)	70.6 nM (active)	800 nM (active)	117 nM	245 nM (active)	1180 nM (inactive)	703 nM (active)	269 nM (active)	476 nM (active)	75.2 nM (active)	246 nM (active)	154 nM (active)	277 nM (active)	299 nM (active)	1290 nM (inactive)	585 nM (active)	62.8 nM (active)	1010 nM (active)
COc1cc(C2c3[nH]c4ccccc4c3[C@@H](Nc3ccc(C#N)cc3)[C@H]3COC(=O)N23)cc(OC)c1O (stereo not given in full)	90.8 nM (active)	51.6 nM (active)	113 nM (active)	54 nM (active)	851 nM (active)	1070 nM	39.9 nM (active)	413 nM (active)	344 nM (active)	372 nM (active)	190 nM (active)	227 nM (active)	462 nM (active)	208 nM (active)	164 nM (active)	61.8 nM (active)	395 nM (active)	254 nM (active)	122 nM (active)	548 nM (active)
